In US20220220135A1 (BAR-ILAN UNIVERSITY, priority 2019, published 2022):
Read-outs that look alike come from different tables or passages of the source.

What was measured:
[1] = cited from earlier work
Human CD73 = target: T1, Human CD73 (Homo sapiens, UniProt P21589); test: Inhibition of human CD73, 5 μM [2,8-3H]AMP as substrate; assay type: biochemical; settings: 5 μM [2,8-3H]AMP as a substrate; for Ki: read-out: Ki ± SD (μM), Human CD73; for % inhibition ± SD at 10 μM, Human CD73: inactive = no inhibition at 10 μM
T1 sequence (P21589 27-549): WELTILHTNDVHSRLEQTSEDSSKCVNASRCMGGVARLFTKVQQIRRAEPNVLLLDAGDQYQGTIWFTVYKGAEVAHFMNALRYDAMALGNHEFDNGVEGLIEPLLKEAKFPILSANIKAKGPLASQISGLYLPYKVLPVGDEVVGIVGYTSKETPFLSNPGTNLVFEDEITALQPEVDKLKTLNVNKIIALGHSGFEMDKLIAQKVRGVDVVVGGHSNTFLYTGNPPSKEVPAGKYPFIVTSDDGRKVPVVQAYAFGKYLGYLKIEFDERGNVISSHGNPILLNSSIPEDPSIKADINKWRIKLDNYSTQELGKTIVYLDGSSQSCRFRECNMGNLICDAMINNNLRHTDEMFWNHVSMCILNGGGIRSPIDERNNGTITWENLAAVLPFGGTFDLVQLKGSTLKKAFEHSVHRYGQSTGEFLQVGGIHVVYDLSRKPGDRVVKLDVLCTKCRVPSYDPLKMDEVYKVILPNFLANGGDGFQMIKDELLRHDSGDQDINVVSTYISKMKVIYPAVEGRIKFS

NPP1 [2] = target: T2, NPP1 (Homo sapiens, UniProt P22413); test: Inhibition of human NPP1, 100 μM p-Nph-5′-TMP as substrate (Tables 5, 6); settings: for % inhibition ± SD at 10 μM, Human NPP1: inactive = no inhibition at 10 μM
T2 sequence (P22413 1-925): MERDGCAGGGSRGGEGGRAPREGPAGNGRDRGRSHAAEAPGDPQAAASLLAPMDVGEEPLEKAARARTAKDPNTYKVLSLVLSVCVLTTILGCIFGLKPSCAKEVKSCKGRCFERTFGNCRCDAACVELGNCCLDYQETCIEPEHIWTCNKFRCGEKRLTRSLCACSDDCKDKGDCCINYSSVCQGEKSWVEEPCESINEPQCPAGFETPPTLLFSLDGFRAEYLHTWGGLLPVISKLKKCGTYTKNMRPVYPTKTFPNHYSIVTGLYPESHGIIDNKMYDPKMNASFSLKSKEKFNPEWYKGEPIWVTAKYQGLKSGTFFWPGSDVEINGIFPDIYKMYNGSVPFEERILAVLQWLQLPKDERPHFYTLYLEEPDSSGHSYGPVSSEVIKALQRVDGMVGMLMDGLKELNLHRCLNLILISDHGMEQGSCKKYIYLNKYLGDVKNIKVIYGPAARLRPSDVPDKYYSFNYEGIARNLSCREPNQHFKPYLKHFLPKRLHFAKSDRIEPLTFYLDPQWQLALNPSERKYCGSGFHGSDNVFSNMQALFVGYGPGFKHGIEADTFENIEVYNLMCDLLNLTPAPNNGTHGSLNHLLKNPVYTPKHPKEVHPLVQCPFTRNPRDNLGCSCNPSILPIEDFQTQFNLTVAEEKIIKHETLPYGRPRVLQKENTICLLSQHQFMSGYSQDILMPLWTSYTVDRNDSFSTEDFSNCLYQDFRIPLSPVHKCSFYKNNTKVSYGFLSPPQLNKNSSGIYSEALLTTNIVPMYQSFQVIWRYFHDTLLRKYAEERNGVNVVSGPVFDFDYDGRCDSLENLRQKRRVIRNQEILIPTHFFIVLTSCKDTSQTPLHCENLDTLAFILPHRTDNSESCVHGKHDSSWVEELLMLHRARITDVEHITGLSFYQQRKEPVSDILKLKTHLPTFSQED

Human CD39 (NTPDase1) = target: T3, Human CD39 (NTPDase1) (Homo sapiens, UniProt P49961); test: Inhibition of human CD39 (NTPDase1), 100 μM ADP as substrate; assay type: biochemical; settings: 100 μM ADP as a substrate; for Ki: read-out: Ki ± SD (μM), Human CD39 (NTPDase1)
T3 sequence (P49961 1-510): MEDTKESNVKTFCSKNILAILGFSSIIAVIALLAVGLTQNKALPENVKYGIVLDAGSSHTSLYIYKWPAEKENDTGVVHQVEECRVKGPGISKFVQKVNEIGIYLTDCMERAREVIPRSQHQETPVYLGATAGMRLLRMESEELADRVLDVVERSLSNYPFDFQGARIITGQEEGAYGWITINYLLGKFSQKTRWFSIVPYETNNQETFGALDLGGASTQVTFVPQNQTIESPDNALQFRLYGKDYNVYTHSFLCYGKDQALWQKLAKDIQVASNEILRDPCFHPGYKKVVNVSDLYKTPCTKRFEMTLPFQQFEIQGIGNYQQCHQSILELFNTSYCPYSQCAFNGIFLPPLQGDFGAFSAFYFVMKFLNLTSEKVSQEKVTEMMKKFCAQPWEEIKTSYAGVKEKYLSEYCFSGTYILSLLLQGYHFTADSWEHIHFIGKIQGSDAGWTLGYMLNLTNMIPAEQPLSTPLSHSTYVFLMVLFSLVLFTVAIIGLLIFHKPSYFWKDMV

human NPP3 = target: T4, human NPP3 (Homo sapiens, UniProt O14638); test: Inhibition of human NPP3, 100 μM p-Nph-5′-TMP as substrate (Tables 5, 7); assay type: biochemical; settings: 10 μM; 100 μM p-Nph-5′-TMP as a substrate; inactive = no inhibition at 10 μM
T4 sequence (O14638 1-875): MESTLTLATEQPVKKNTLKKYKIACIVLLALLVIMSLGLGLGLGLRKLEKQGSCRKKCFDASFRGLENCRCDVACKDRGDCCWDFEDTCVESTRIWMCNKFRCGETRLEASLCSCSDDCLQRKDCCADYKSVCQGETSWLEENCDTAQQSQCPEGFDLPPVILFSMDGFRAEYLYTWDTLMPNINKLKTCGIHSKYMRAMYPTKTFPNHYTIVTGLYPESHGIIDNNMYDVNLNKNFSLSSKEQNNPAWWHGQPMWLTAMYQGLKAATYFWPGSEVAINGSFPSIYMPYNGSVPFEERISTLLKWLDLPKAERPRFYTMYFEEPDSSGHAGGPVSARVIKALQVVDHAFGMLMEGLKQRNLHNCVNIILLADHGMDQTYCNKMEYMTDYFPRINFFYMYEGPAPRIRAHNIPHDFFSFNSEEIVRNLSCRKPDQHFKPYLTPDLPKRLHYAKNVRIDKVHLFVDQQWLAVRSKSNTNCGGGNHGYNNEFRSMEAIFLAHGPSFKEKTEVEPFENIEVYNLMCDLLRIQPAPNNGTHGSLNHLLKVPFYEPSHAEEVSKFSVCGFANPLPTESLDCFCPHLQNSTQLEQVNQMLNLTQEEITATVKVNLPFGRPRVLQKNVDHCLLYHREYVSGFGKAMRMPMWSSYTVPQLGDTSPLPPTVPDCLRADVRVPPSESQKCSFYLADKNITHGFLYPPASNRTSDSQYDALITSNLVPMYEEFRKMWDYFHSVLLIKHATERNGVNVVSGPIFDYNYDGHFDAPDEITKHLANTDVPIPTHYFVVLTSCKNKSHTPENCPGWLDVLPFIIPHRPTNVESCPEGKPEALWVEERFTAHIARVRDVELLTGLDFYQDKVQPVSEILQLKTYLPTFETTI

[3] = Chemical stability under acidic and basic conditions by 31P-NMR
Source text: To evaluate the chemical stability of uridine-5′-Pα,α-dithiophosphate analogues, we measured by 31P-NMR the time-dependent percentage of the analogues remaining under basic and acidic conditions, and due to air-oxidation.

NPP1 [4] = target: T2, NPP1; test: Inhibition of human NPP1, 100 μM ATP as substrate (FIG. 9, Table 6); assay type: biochemical; settings: 100 μM ATP as a substrate; read-out: Ki, human NPP1
Method: Each experiment was performed in triplicates;

[5] = 100 μM p-Nph-5′-TMP as a substrate
[6] = 10 μM, inactive = no inhibition at 10 μM
[7] = read-out: Ki ± SD (μM), Human NPP1, 100 μM p-Nph-5′-TMP as a substrate

Row | SMILES | Ki (Human CD73) [µM] | % inhibition ± SD at 10 μM, Human CD73 (Human CD73) | % inhibition ± SD at 10 μM, Human NPP1 (NPP1 [2]; [5]) | % inhibition ± SD at 10 μM, Human CD39 (NTPDase1) (Human CD39 (NTPDase1); [6]) | % inhibition ± SD at 10 μM, Human NPP3 (human NPP3) | Ki (NPP1 [2]; [7]) [µM] | Ki (Human CD39 (NTPDase1)) [µM] | further results
1 | CSc1nc(N)c2ncn(C3OC(COP(O)(=S)OP(=O)(O)O)C(O)C3O)c2n1 (stereo not drawn) [2-Methylthio-ADP-α-S] | – | – | – | – | – | – | – | Time for decomposition of 5% ([1]; Basic pH, reference 24): <0.5 h; Time for decomposition of 10% ([1]; Basic pH, reference 24): <0.5 h
2 | Nc1ncnc2c1ncn2COCCOP(=O)(O)O [Compound 24] | > 10 | 5 ± 3% | inactived | inactived | inactived | – | – | –
3 | Nc1ncnc2c1ncn2[C@@H]1O[C@H](COP(=O)(O)CS(=O)(=O)O)[C@@H](O)[C@H]1O [Compound 20] | 49.5 ± 0.7 | – | inactived | inactived | inactived | – | – | –
4 | Nc1ncnc2c1ncn2COCCOP(=O)(O)C(Cl)(Cl)P(=O)(O)O [Compound 23] | > 10 | 17 ± 4% | 4 ± 1% | 24 ± 3% | inactived | > 10 | > 10 | –
5 | O=c1ccn([C@@H]2O[C@H](COP(=O)(O)OP(=O)(O)OP(=O)(O)O)[C@@H](O)[C@H]2O)c(=O)[nH]1 [UTP] | – | – | – | – | – | – | – | Time for decomposition of 5% ([3]; Acidic pH): 7.5 days; Time for decomposition of 10% ([3]; Acidic pH): 19 days; Time for decomposition of 5% ([3]; Basic pH): 1 days; Time for decomposition of 10% ([3]; Basic pH): 8.5 days; decomposition ([3]; acidic, pD 2.1, after 20 days): 11%; decomposition ([3]; basic conditions (pD 12.1), after 20 days): 10%
6 | O=c1ccn([C@@H]2O[C@H](COP(=O)(O)OP(=O)(O)O)[C@@H](O)[C@H]2O)c(=O)[nH]1 [UDP] | – | – | – | – | – | – | – | decomposition ([3]; pD 2.1, after 28 days): 7%
7 | Nc1ncnc2c1ncn2COCCOP(=O)(O)CP(=O)(O)O [Compound 22] | 12.6 ± 1.4 | – | – | 22 ± 2% | inactived | – | > 10 | –
8 | Nc1ncnc2c1ncn2COCCOP(=O)(O)CP(=O)(O)O [Analogue 22] | – | – | – | – | – | 16.3 ± 2.5 | – | Ki (NPP1 [4]): 9.6 ± 2.84 µM
9 | Nc1nc(SCc2ccccc2)nc2c1ncn2[C@@H]1O[C@H](COP(O)(=S)OP(=O)(O)OP(=O)(O)O)[C@@H](O)[C@H]1O (stereo partly drawn) [2-Benzylthio-ATP-α-S] | – | – | – | – | – | – | – | Time for decomposition of 5% ([1]; Acidic pH, reference 34): 19 h; Time for decomposition of 10% ([1]; Acidic pH, reference 34): 40.8 h
10 | Nc1ncnc2c1ncn2[C@@H]1O[C@H](COS(=O)(=O)CS(=O)(=O)O)[C@@H](O)[C@H]1O [Compound 21] | > 10 | 23 ± 3% | 12 ± 1% | inactived | inactived | > 10 | – | –
11 | Nc1ncnc2c1ncn2COCCO[PH](=O)O [Compound 25] | – | inactived | – | – | inactived | – | > 10 | Ki (NPP1 [2]): > 10 µM; inhibition at 10 µM (NPP1 [2]; read-out: % inhibition ± SD at 10 μM, Human NPP1): 6%; inhibition at 10 µM (Human CD39 (NTPDase1); 10 μM, inactive = no inhibition at 10 μM, read-out: % inhibition ± SD at 10 μM, Human CD39 (NTPDase1)): 33%
12 | Nc1ncnc2c1ncn2COCCOP(O)(=S)OCCOCn1cnc2c(N)ncnc21 [Compound 26] | – | inactived | 13 ± 1% | 15 ± 2% | inactived | > 10 | > 10 | –
